The text below walks through data of patent EP4631959A2, “NOVEL MINIGASTRIN-DERIVED CHOLECYSTOKININ 2 RECEPTOR BINDING MOLECULES FOR IMAGING AND TARGETED RADIOTHERAPY” (priority 2022, dated 2024).

Like-named read-outs stand apart in the source and are kept apart here. Starred links: 1 amine or outer side, 2 acyl side, 3 side chain; linkers in the order of their positions; H or OH if unused. Non-standard residues stand in square brackets, D forms with d. Residues, ends and D or L forms follow the SMILES beside them. *: point of attachment. Benzoyl(4-SiFtBu2) = CC(C)(C)[Si](F)(c1ccc(C(=O)*)cc1)C(C)(C)C; DOTA = O=C(O)CN1CCN(CC(=O)O)CCN(CC(=O)*)CCN(CC(=O)O)CC1; d(γGlu) = O=C(O)[C@@H](CCC(=O)[*:2])N[*:1]; 1Nal = N[C@@H](Cc1cccc2ccccc12)C(=O)O; Hyp = O=C(O)[C@@H]1C[C@@H](O)CN1; NMeNle = CCCC[C@H](NC)C(=O)O; PEG4 = NCCOCCOCCOCCOCCC(=O)O; dDap = NC[C@@H](N)C(=O)O

For this test, the target named is T1, CCK-2R (Rattus norvegicus, UniProt P30553).
T1 construct: The CCK-2R expressing rat pancreatic tumor cells AR4-2J; host or cells: AR4-2J rat pancreatic tumor cells
T1 sequence (P30553 1-452): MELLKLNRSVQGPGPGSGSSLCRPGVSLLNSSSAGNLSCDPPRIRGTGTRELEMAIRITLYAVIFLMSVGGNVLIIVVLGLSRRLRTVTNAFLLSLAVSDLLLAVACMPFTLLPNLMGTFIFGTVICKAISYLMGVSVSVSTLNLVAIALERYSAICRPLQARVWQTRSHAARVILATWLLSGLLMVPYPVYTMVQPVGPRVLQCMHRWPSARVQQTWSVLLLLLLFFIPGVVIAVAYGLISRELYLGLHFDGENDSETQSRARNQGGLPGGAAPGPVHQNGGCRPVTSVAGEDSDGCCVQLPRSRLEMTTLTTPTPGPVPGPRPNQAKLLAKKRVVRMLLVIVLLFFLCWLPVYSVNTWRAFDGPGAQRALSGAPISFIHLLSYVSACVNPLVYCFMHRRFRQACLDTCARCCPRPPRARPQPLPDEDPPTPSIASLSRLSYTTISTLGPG
Kind of test: Determination of IC50: CCK-2R affinity on AR4-2J cells, competition with [^177Lu]Lu-DOTA-PP-F11N. The class given is binding. Particulars: AR4-2J cells. The essentials: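 Competitive displacement of 0.3 pmol/well [177Lu]Lu-DOTA-PP-F11N by compounds (10^-10 to 10^-4 M) on AR4-2J cells in BSA-supplemented medium, 3 h at 37 °C. Free label was collected from medium plus PBS rinse, and cell-bound label was recovered with 1 M NaOH, both measured by γ-counter. Each IC50 was determined twice, in triplicate.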

Consider `CCCC[C@@H](C(=O)N[C@@H](CC(=O)O)C(=O)N[C@@H](Cc1cccc2ccccc12)C(N)=O)N(C)C(=O)[C@H](Cc1c[nH]c2ccccc12)NC(=O)CCOCCOCCOCCOCCNC(=O)CC[C@@H](NC(=O)[C@@H]1C[C@@H](O)CN1C(=O)[C@@H]1C[C@@H](O)CN1C(=O)[C@@H]1C[C@@H](O)CN1C(=O)[C@@H]1C[C@@H](O)CN1C(=O)[C@@H]1C[C@@H](O)CN1C(=O)[C@@H]1C[C@@H](O)CN1C(=O)CC[C@@H](NC(=O)[C@@H](CNC(=O)c1ccc([Si](F)(C(C)(C)C)C(C)(C)C)cc1)NC(=O)CN1CCN(CC(=O)O)CCN(CC(=O)O)CCN(CC(=O)O)CC1)C(=O)O)C(=O)O` [DOTA-rhCCK-84, DOTA-dap(SiFA)-γ-glu-(Hyp)6-γ-glu-(PEG)3-Trp-(N-Me)Nle-Asp-1-Nal-NH2] ({DOTA}-[dDap](Benzoyl(4-SiFtBu2))[d(γGlu)][Hyp][Hyp][Hyp][Hyp][Hyp][Hyp][d(γGlu)][PEG4]W[NMeNle]D[1Nal]-NH2), for which the IC50 was 27.7 ± 3.1 nM (read-out: IC50 [nM] (n = 3), ^natGa-labeled, ^natGa-labeled) and 7.87 ± 0.3 nM (read-out: IC50 [nM] (n = 3), ^natLu-labeled, ^natLu-labeled).

As a reminder, the IC50 is the concentration at which inhibition is half-maximal.
